The values that follow come from patent US20240166617A1, “PHOSPHOINOSITIDE 3 KINASE BETA INHIBITORS AND COMPOSITIONS AND METHODS THEREOF” (Geode Therapeutics Inc., priority 2021, published 2024).

Molecules are shown by their SMILES. Read-outs that look alike come from different tables or passages of the source.

In one assay the target is T1, PIK3Cb_h (Homo sapiens, UniProt P42338).
T1 construct: purchased Eurofins DiscoveRx Corporation
Put plainly: Enzyme binding assay (KINOMEscan). The following applies: Eurofins DiscoveRx. Here is the method:
Kinase enzyme binding affinities of compounds disclosed herein were determined using the KINOMEscan technology performed by Eurofins DiscoveRx Corporation, San Diego, California, USA (www.eurofinsdiscoveryservices.com). Table 2 reports the obtained PIK3β Kd values (nM) of, with the PIK3β Kd being the inhibitor binding constant. Table 3 reports the obtained Kd values (nM), with the Kd being the inhibitor binding constant: […]

Assay [1] relates to phosphorylation of AKT in HCC70 cells. As to the kind of experiment: Cellular assay: phosphorylation of AKT in HCC70 cells (western blotting). In kind it is cell-based. Particulars: Homo sapiens, HCC70, 1 h, HCC70 cells, compound 500 nM, 60 min, inhibition of Akt activity from band intensities. The method, boiled down: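 HCC70 cells treated with compound at 500 nM (0.1% DMSO control) for 60 min at 37 °C; pAKT Ser473 and Thr308 plus total AKT measured by western blot with fluorescent detection. Inhibition from band intensities, binned as + (20–60%), ++ (60–80%), +++ (80–90%), ++++ (>90%).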

[2] abbreviates: read-out: Index of AI (HCC70) p-AKT Thr 308.
Where [3] appears, read: read-out: Index of AI (HCC70) p-AKT ser 473.

T1 sequence (P42338 whole entry): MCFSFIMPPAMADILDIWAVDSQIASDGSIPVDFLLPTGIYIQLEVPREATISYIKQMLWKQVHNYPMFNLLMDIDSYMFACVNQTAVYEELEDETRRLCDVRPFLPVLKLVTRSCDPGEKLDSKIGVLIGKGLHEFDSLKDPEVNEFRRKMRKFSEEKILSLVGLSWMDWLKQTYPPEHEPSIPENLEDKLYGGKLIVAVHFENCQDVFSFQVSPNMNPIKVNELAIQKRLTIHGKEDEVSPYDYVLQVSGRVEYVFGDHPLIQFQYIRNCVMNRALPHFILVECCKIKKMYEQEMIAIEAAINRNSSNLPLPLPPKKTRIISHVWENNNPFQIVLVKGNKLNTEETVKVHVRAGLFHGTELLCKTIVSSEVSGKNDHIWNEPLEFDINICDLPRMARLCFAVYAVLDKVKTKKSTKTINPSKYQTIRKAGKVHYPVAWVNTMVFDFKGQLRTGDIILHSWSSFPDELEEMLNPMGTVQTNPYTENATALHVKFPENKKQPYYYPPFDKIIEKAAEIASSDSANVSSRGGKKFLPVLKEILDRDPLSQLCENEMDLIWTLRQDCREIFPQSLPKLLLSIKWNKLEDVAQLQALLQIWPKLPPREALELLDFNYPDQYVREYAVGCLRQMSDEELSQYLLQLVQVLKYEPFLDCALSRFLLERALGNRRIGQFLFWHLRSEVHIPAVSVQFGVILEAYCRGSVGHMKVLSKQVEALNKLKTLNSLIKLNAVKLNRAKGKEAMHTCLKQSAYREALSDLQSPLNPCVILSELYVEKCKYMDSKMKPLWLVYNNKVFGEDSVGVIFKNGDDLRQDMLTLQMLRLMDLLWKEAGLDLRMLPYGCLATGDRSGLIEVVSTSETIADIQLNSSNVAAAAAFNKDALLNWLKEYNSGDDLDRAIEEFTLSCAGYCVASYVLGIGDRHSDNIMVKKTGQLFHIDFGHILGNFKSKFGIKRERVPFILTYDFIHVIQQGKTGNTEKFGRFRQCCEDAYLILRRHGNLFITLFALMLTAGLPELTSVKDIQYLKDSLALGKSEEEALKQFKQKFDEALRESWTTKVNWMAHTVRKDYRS

A word on the Kd: it is the equilibrium constant for the complex coming apart. Higher therefore signals a looser complex. At PIK3Cb_h, `CC(Nc1cc(F)cc(F)c1)c1cc(C(=O)N2CC(N(C)C)C2)cn2c(=O)cc(N3CCOCC3)nc12` (stereo not drawn) [Compound 49, 9-(1-((3,5-difluorophenyl)amino)ethyl)-7-(3-(dimethylamino)azetidine-1-carbonyl)-2-morpholino-4H-pyrido[1,2-a]pyrimidin-4-one] had a Kd of 0.67 nM. Besides, the inhibition at 0.5 µM in assay [1] (setting [2]) and in assay [1] (setting [3]) was 60 to 80% throughout.
`C[C@@H](Nc1cc(F)cc(F)c1)c1cc(C(=O)N2CC[C@@H](N(C)C)C2)cn2c(=O)cc(N3CCOCC3)nc12` [Compound 50, 9-((R)-1-((3,5-difluorophenyl)amino)ethyl)-7-((R)-3-(dimethylamino)pyrrolidine-1-carbonyl)-2-morpholino-4H-pyrido[1,2-a]pyrimidin-4-one]: the Kd on PIK3Cb_h was 0.11 nM. Moreover, the inhibition at 0.5 µM in assay [1] (setting [2]) and in assay [1] (setting [3]) was > 90% in each case.
`C[C@@H](Nc1cc(F)cc(F)c1)c1cc(C(=O)N2CC[C@H](N(C)C)C2)cn2c(=O)cc(N3CCOCC3)nc12` [Compound 51, 9-((R)-1-((3,5-difluorophenyl)amino)ethyl)-7-((S)-3-(dimethylamino)pyrrolidine-1-carbonyl)-2-morpholino-4H-pyrido[1,2-a]pyrimidin-4-one]: at PIK3Cb_h, the affinity, expressed as Kd, was 0.12 nM. Moreover, the inhibition at 0.5 µM in assay [1] (setting [2]) and in assay [1] (setting [3]) was > 90% in each case.
On PIK3Cb_h, `Cc1cc(C(C)N2c3cc(F)cc(F)c3CC2C)c2nc(N3CCOCC3)cc(=O)n2c1` (stereo not drawn) [Compound 58, 9-(1-(4,6-difluoro-2-methylindolin-1-yl)ethyl)-7-methyl-2-morpholino-4H-pyrido[1,2-a]pyrimidin-4-one] gave a dissociation constant (Kd) of 2 nM. Also, the inhibition at 0.5 µM in assay [1] (setting [2]) and in assay [1] (setting [3]) was 80 to 90% each time.
Take `Cc1cc(C(C)N2CCc3c(F)cc(F)cc32)c2nc(N3CCOCC3)cc(=O)n2c1` (stereo not drawn) [Compound 59, 9-(1-(4,6-difluoroindolin-1-yl)ethyl)-7-methyl-2-morpholino-4H-pyrido[1,2-a]pyrimidin-4-one]: at PIK3Cb_h, the Kd amounted to 0.61 nM. In addition, the inhibition at 0.5 µM in assay [1] (setting [2]) and in assay [1] (setting [3]) was 80 to 90% each time.
